For assay [1], the system named is iPSC differentiation cultures on Laminin 521. Kind of assay: WNT agonist addition to iPSC directed differentiation (immunofluorescence). The format is cell-based, human. The conditions noted are these: for Stage 1 differentiation efficiency at day 6 (CD31 and CD34 immunofluorescence): 0.6 μM CHIR98014 or 6 μM CHIR99021 for the first 48 hours. The text has this:
WNT signaling is important during development. The GSK3 kinase inhibitors CHIR98014 and CHIR99021 act as WNT agonists. […] The control and CHIR98014 cultures were then transitioned to Stage 2, where the production and release of preMKs were tracked by immunofluorescence staining of CD41 and CD43.

The test system of another assay is human washed platelets. The assay can be described thus: Small-molecule loading of human washed platelets by passive diffusion. It counts as cell-based. Conditions: 100 μM, 1e7 platelets in 1 ml, ambient temperature, dialysis cassette. As for the experimental part:
100 μM of Doxorubicin was used with a preparation of 1e7 platelets in 1 ml of buffer and incubated at ambient temperature for 30, 120, 240, and 1440 minutes under constant agitation on an orbital shaker in a dialysis cassette (Thermofisher #88400). […] A kinetic study was employed to understand the minimum and maximum amount of time necessary for doxorubicin encapsulation in the washed platelets.

Assay [2] relates to iPSC differentiation cultures. Kind of assay: Order and timing of Stage 1 growth factor addition, preMK yields. Conditions: Experiment B. It counts as cell-based, human.
For assay [3], the system named is iPSC 3D differentiation cultures. The assay can be described thus: Soluble Laminin 521 addition in 3D iPSC differentiation, preMK yields. The conditions noted are these: for preMK yields in Stage 2 vs control without addition: addition at Day −1 or Day 6. The format is cell-based, human. The method, then:
[…] 24 hours later, the media was replaced with Stage 1 media and media exchanges were performed for 6 days. […] Media was then exchanged with Stage 2 media, with or without soluble Laminin 521. 24 hours later, daily half media exchanges were performed for up to 6 additional days.

Where a name gives a salt, the structure may show the parent alone.

As to `Cc1c[nH]c(-c2cnc(NCCNc3ccc(C#N)cn3)nc2-c2ccc(Cl)cc2Cl)n1` [CHIR99021], the “Stage 1 differentiation efficiency at day 6 (CD31 and CD34 immunofluorescence)” value in assay [1] is given as “dramatic increase”.
For the molecule `COc1cccc2c1C(=O)c1c(O)c3c(c(O)c1C2=O)C[C@@](O)(C(=O)CO)C[C@@H]3O[C@H]1C[C@H](N)[C@H](O)[C@H](C)O1` [doxorubicin, Doxorubicin hydrochloride], the “incubation time sufficient to see detectable doxorubicin in platelets” value in the assay with human washed platelets was found to be 30 min.
For CHIR98014, the “Stage 1 differentiation efficiency at day 6 (CD31 and CD34 immunofluorescence)” value in assay [1] is given as “dramatic increase”. The “Stage 2 output (visual estimation of CD41+ cells)” value in assay [1] (0.6 μM in first 48 hours of Stage 1) is “higher output”.
As to “FGF2: basic fibroblast growth factor, Stage 1 media growth factor”, the “requirement of growth factor during Stage 1 differentiation” value in assay [2] is on record as “critical for differentiation to proceed effectively”.
On to “Laminin 521: soluble recombinant human protein Laminin 521”, for which the “preMK yields in Stage 2 vs control without addition” value in assay [3] (96-well U-bottom ultra-low adherent plate) and in assay [3] (agitated 6-well ultra-low adherent plate on orbital shaker) was “increased the preMK yields” throughout. For the same molecule, in assay [3] (self-aggregation in NutriStem), the “Laminin 521 effect on preMK yields with single-cell passaged iPSCs” value is “effect was amplified”.

B1: BMP4: bone morphogenic protein 4, Stage 1 media growth factor (protein, UniProt P12644 293-408, looked up)
Bone morphogenetic protein 4: SPKHHSQRARKKNKNCRRHSLYVDFSDVGWNDWIVAPPGYQAFYCHGDCPFPLADHLNSTNHAIVQTLVNSVNSSIPKACCVPTELSAISMLYLDEYDKVVLKNYQEMVVEGCGCR
As to B1, the “requirement of growth factor during Stage 1 differentiation” value in assay [2] was “dispensable beyond 24 hours”.

(Values after patent US12403161B2, “Compositions for drug delivery and methods of use thereof” (Stellular Bio, Inc., priority 2018, dated 2025).)
